Data: ChEMBL document CHEMBL4483862, “Open-source discovery of chemical leads for next-generation chemoprotective antimalarials” (2018)

Test system: Plasmodium berghei
Test: Luciferase/luciferin-expressing antifolate-resistant parasites were used to infect a culture of HepG2 cells that were pre-incubated with compounds. Infected hepatocytes emit light due to the luciferase reaction. Assay results are presented as the percent inhibition of light emission compared to control. […]
Format: functional
Conditions: sporozoite; for IC90: read-out: LUCIFERASE INFECTION ASSAY - IC90
[1] = read-out: LUCIFERASE INFECTION ASSAY - IC50

Row | SMILES | IC90 | IC50 [1] | also measured
1 | COc1ccc(/C=C2\Oc3cc(O)cc(C)c3C2=O)c(OC)c1 | > 10.6 µM | – | IC50 (HEPG2TOX_HILL_SLOPE 7.92, HEPG2TOX_R_SQUARED 0.287, PBLUC_HILL_SLOPE 2.15, PBLUC_R_SQUARED 0.542, read-out: LUCIFERASE INFECTION ASSAY - IC50): 6.5 µM
2 | C=c1onc(-c2c(F)cccc2Cl)c1=C1NC(c2ccccn2)=NO1 | > 9.25 µM | – | IC50 (PBLUC_HILL_SLOPE 3.2, PBLUC_R_SQUARED 0.36, read-out: LUCIFERASE INFECTION ASSAY - IC50): 6.04 µM
3 | O=C(CSc1ncnc2ccccc12)NN1C(=O)NC(c2ccccc2)(c2ccccc2)C1=O | > 10 µM | > 10 µM | –
4 | FC(F)(F)c1cccc(CNc2ncnc3sccc23)c1 | 6.39 µM | – | IC50 (HEPG2TOX_HILL_SLOPE 0.888, 1.51, HEPG2TOX_R_SQUARED 0.921, 0.862, PBLUC_HILL_SLOPE 1.26, 1.66, PBLUC_R_SQUARED 0.564, 0.617, read-out: LUCIFERASE INFECTION ASSAY - IC50): 1.42 µM
5 | Cn1c(NCc2ccccc2)nc2cnc(Nc3cccc(Oc4ccccc4)c3)cc21 | 3.9 µM | – | IC50 (HEPG2TOX_HILL_SLOPE 16.8, HEPG2TOX_R_SQUARED 0.905, PBLUC_HILL_SLOPE 16.2, PBLUC_R_SQUARED 0.526, read-out: LUCIFERASE INFECTION ASSAY - IC50): 3.4 µM
6 | N#CCCNS(=O)(=O)c1cccc(C(=O)Nc2ccc(Nc3ccccc3)cc2)c1 | 4.83 µM | – | IC50 (HEPG2TOX_HILL_SLOPE 1.27, HEPG2TOX_R_SQUARED 0.641, PBLUC_HILL_SLOPE 2.13, PBLUC_R_SQUARED 0.388, read-out: LUCIFERASE INFECTION ASSAY - IC50): 1.72 µM
7 | COc1ccc(CC(N)c2csc(NC(=O)c3cc(C(C)(C)C)nn3Cc3ccccc3)n2)cc1 (stereo unspecified) | 5.64 µM | – | IC50 (HEPG2TOX_HILL_SLOPE 1.31, HEPG2TOX_R_SQUARED 0.716, PBLUC_HILL_SLOPE 7.57, PBLUC_R_SQUARED 0.705, read-out: LUCIFERASE INFECTION ASSAY - IC50): 4.22 µM
8 | O=C(c1cncn1-c1ccccc1)N1CC=C(c2ccccc2)CC1 | > 10 µM | – | IC50 (HEPG2TOX_HILL_SLOPE 2.04, HEPG2TOX_R_SQUARED 0.78, PBLUC_HILL_SLOPE 1.11, PBLUC_R_SQUARED 0.463, read-out: LUCIFERASE INFECTION ASSAY - IC50): 4.38 µM
9 | COc1ccccc1CN1C(=O)C=CC1=O | > 15.2 µM | – | IC50 (HEPG2TOX_HILL_SLOPE 11.1, HEPG2TOX_R_SQUARED 0.957, PBLUC_HILL_SLOPE 12.9, PBLUC_R_SQUARED 0.465, read-out: LUCIFERASE INFECTION ASSAY - IC50): 13.8 µM
10 | COc1cc(/C=N/n2cnc3scc(-c4ccc(C)cc4)c3c2=O)ccc1OC(=O)OC(C)(C)C | > 10 µM | – | IC50 (HEPG2TOX_HILL_SLOPE 2.15, HEPG2TOX_R_SQUARED 0.967, PBLUC_HILL_SLOPE 2.51, PBLUC_R_SQUARED 0.415, read-out: LUCIFERASE INFECTION ASSAY - IC50): 4.26 µM
11 | CC(C)N(C(=O)COC(=O)c1ccccc1-c1nc2ccccc2s1)c1ccccc1 | > 10 µM | – | IC50 (PBLUC_HILL_SLOPE 20.1, PBLUC_R_SQUARED 0.325, read-out: LUCIFERASE INFECTION ASSAY - IC50): 9.13 µM
12 | COc1cc(/C=C/c2ccc3ccccc3n2)ccc1OCC(=O)Nc1cccc(C(F)(F)F)c1 | > 10 µM | – | IC50 (PBLUC_HILL_SLOPE 1.81, PBLUC_R_SQUARED 0.402, read-out: LUCIFERASE INFECTION ASSAY - IC50): 8.14 µM
13 | Cc1nc(Sc2ncnc3c(Br)cccc23)sc1CC(N)=O | > 10 µM | > 10 µM | –
14 | Cc1ccc(C(=O)Nc2nc(-c3ccccn3)cs2)cc1S(=O)(=O)N1CCCCC1 | 8.14 µM | – | IC50 (HEPG2TOX_HILL_SLOPE 16.5, HEPG2TOX_R_SQUARED 0.73, PBLUC_HILL_SLOPE 17.5, PBLUC_R_SQUARED 0.446, read-out: LUCIFERASE INFECTION ASSAY - IC50): 7.18 µM
15 | Cc1ccc(C)c(OCC(O)CN2CCc3ccccc3C2)c1 (stereo unspecified) | > 9.49 µM | > 9.49 µM | –
16 | O=C(Nc1ccc(N2CCN(c3ncccc3C(F)(F)F)CC2)nc1)c1cccs1 | 0.867 µM | – | IC50 (PBLUC_HILL_SLOPE 2.12, PBLUC_R_SQUARED 0.656, read-out: LUCIFERASE INFECTION ASSAY - IC50): 0.307 µM
17 | O=C(OCCSc1ccc([N+](=O)[O-])c2nonc12)c1ccccc1 | > 9.56 µM | – | IC50 (FFLUC_HILL_SLOPE 1.36, FFLUC_R_SQUARED 0.568, HEPG2TOX_HILL_SLOPE 2.89, HEPG2TOX_R_SQUARED 0.849, PBLUC_HILL_SLOPE 0.85, PBLUC_R_SQUARED 0.48, read-out: LUCIFERASE INFECTION ASSAY - IC50): 5.19 µM

Row | SMILES | IC90 | IC50 [1] | also measured
18 | Cc1cc(-c2ccccc2)c(-c2nc3ccccc3[nH]2)[nH]1 | 1.38 µM | – | IC50 (HEPG2TOX_HILL_SLOPE 8.44, HEPG2TOX_R_SQUARED 0.516, PBLUC_HILL_SLOPE 11.1, PBLUC_R_SQUARED 0.785, read-out: LUCIFERASE INFECTION ASSAY - IC50): 1.13 µM
19 | OC(c1ccc(Nc2nc3ccccc3s2)cc1)(C(F)(F)F)C(F)(F)F | 9.74 µM | – | IC50 (PBLUC_HILL_SLOPE 1.04, 1.87, PBLUC_R_SQUARED 0.121, 0.671, read-out: LUCIFERASE INFECTION ASSAY - IC50): 5.01 µM
20 | OC(c1cc(F)c(F)c(F)c1)c1nnc(Nc2cc(C(F)(F)F)ccc2F)s1 (stereo unspecified) | 7.5 µM | – | IC50 (PBLUC_HILL_SLOPE 4.45, PBLUC_R_SQUARED 0.324, read-out: LUCIFERASE INFECTION ASSAY - IC50): 4.58 µM
21 | O=C(NNC(=S)Nc1cccc(C(F)(F)F)c1)c1ccc(OC(F)(F)F)cc1 | > 7.8 µM | > 7.8 µM | –
22 | COc1cc(-c2cnc3cnc(-c4cccnc4)cn23)ccc1O | 3.99 µM | – | IC50 (PBLUC_HILL_SLOPE 15.7, PBLUC_R_SQUARED 0.533, read-out: LUCIFERASE INFECTION ASSAY - IC50): 3.47 µM
23 | Nc1nc(Sc2ncnc3ccsc23)nc2sccc12 | > 10 µM | 9.85 µM | –
24 | C=CCNS(=O)(=O)c1ccc(C(=O)NCc2ccccc2OC(F)F)cc1 | > 10 µM | > 10 µM | –
25 | COc1ccc(CCn2nc(C(=O)NC3CC3)c3c2CCN(C(=O)c2cc4cc(C)ccc4[nH]2)C3)cc1 | > 6.63 µM | – | IC50 (FFLUC_HILL_SLOPE 11.9, FFLUC_R_SQUARED 0.277, PBLUC_HILL_SLOPE 2.4, PBLUC_R_SQUARED 0.763, read-out: LUCIFERASE INFECTION ASSAY - IC50): 2.8 µM
26 | Cc1ccc(C(=O)NCc2ccc(-c3ccc(Cl)cc3)o2)cc1NC(=O)c1ccco1 | > 10 µM | > 10 µM | –
27 | O=S(=O)(Oc1cncc(Cl)c1)c1cc(Cl)cc(Cl)c1 | > 9.75 µM | – | IC50 (PBLUC_HILL_SLOPE 1.51, PBLUC_R_SQUARED 0.362, read-out: LUCIFERASE INFECTION ASSAY - IC50): 8.89 µM
28 | Cc1cc(Oc2ccc(C(F)(F)F)cc2NS(=O)(=O)c2cc(C(F)(F)F)cc(C(F)(F)F)c2)cc(C)c1Cl | > 5.58 µM | > 5.58 µM | –
29 | Cc1ccc(SCc2ccccc2C(=O)Nc2cc(Cl)ccc2O)cc1 | > 8.6 µM | > 8.6 µM | –
30 | CN1CCN(c2ccc(-c3cn4c(-c5ccc(Oc6ccccc6)cc5)cnc4cn3)cn2)CC1 | > 7.13 µM | 6.77 µM | –
31 | COc1ccc(C)cc1N1CC(C(=O)Nc2nc3ccccc3[nH]2)CC1=O (stereo unspecified) | 4.27 µM | – | IC50 (HEPG2TOX_HILL_SLOPE 2.88, HEPG2TOX_R_SQUARED 0.929, PBLUC_HILL_SLOPE 3.77, PBLUC_R_SQUARED 0.362, read-out: LUCIFERASE INFECTION ASSAY - IC50): 2.38 µM
32 | Cc1nn(CC(C)C)c(C)c1CC(=O)NCc1ccccc1Cn1cccn1 | > 10 µM | > 10 µM | –
33 | CCCc1cc(NCc2cccnc2)n2nc(C)c(-c3ccccc3)c2n1 | > 9.23 µM | – | IC50 (PBLUC_HILL_SLOPE 1.13, PBLUC_R_SQUARED 0.661, read-out: LUCIFERASE INFECTION ASSAY - IC50): 3.19 µM
